Test results reported in patent publication US20070072242A1, “Immunoassay method and kit to leucomalachite green and malachite green” (Randox Laboratories Limited, priority 2005, published 2007).

Tests used:
[1] = tested on: Ig fraction of the antiserum raised to immunogen II (hapten A-BTG); assay: competitive ELISA microtiter plate assay, antiserum to immunogen II with conjugate I (hapten A-HRP); format: binding, sheep; settings: for % CR (percentage cross-reactivity based on specificity to leucomalachite green) / IC50 (standard concentration which produces 50% B/B0): Conjugate I (hapten A-HRP); for IC50 (standard concentration which produces 50% B/B0): 37° C. 2 hours; for % B/B0 / A450: Conjugate I
Experimental: (§1) An aqueous solution of immunogen II was formulated with Freund's Complete Adjuvant (FCA) to form an emulsion consisting of 2 mg/ml immunogen in 50% (v/v) FCA. Three sheep were immunised with this emulsion (1° immunisation), 0.25 ml being intramuscularly injected at each of four sites in the rump of each animal. Subsequent immunizations (boosts) contained 1 mg/ml immunogen. All boosts were emulsified in 50% (v/v) Freund's Incomplete Adjuvant (FIA) and were administered in the same manner as the 1° immunisation, at monthly intervals for 1 year. Blood sampling took place 7 to 14 days after each boost. Each sample was processed to produce antiserum, which was further purified by caprylic acid and ammonium sulfate precipitation to yield an immunoglobulin (Ig) fraction. The Ig fraction was evaluated by competitive ELISA microtiter plate assay, as described in Example 12 below.
(§2) The wells of an enhanced binding 96 well polystyrene microtiter plate were coated with the Ig fraction of the antiserum raised to immunogen II (hapten A-BTG) (Example 8), diluted in 10 mM Tris, pH8.5 (125 μl/well). The appropriate antibody coating dilution was determined using standard ELISA checkerboard techniques. The plate was incubated for 2 hours at 37° C., washed 4 times with Tris buffered saline containing Tween 20 (TBST) and tapped dry. Standard solutions of leucomalachite green and malachite green were prepared in TBST at 0, 5, 10, 50, 100, 250, 500 and 1000 ng/ml, and 50 μl of each was added to the appropriate wells (FIG. 8).
75 μl of conjugate I (hapten A-HRP) (Example 9), diluted in Tris buffer (pH 7.2) containing EDTA, D-mannitol, sucrose, thimerosal and BSA, was added to each of the wells, as shown in FIG. 8. The appropriate dilution of conjugate was also determined using standard ELISA checkerboard techniques. The plate was incubated at 37° C. for 2 hours. Excess unbound conjugate was removed by washing 6 times over a 10 minute period with TBST. 125 μl of tetramethylbenzidine (TMB) substrate solution was added to each well of the plate that was then incubated for 15 to 20 minutes in the dark at room temperature. The reaction was terminated by addition of 125 μl 0.2M H2SO4 to each well. The absorbance was then measured at 450 nm using a microtiter plate reader.

Bioo Kit antibodies = settings: information provided by Bioo Scientific; kit designed to detect malachite green only; cited from earlier work
[2] = tested on: Ig fraction of the antiserum raised to immunogen II (hapten A-BTG); assay: competitive ELISA microtiter plate assay, antiserum to immunogen II with Conjugate II (hapten C-HRP); format: binding, sheep; settings: for % CR (percentage cross-reactivity based on specificity to leucomalachite green) / IC50 (standard concentration which produces 50% B/B0): Conjugate II (hapten C-HRP); for IC50 (standard concentration which produces 50% B/B0): 25° C. 1 hour; for % B/B0 / A450: Conjugate II
Experimental: as §1
as §2, with “Standard solutions of leucomalachite green and malachite green were prepared in TBST at 0, 5, 10, 50, 100, 250, 500 and 1000 ng/ml, and 50 μl of each was added to the appropriate wells (FIG. 8).” left out
75 μl of conjugate C (hapten C-HRP) (Example 10), diluted in Tris buffer (pH 7.2) containing EDTA, D-mannitol, sucrose, thimerosal and BSA, was added to each of the wells, as shown in FIG. 8. The appropriate dilution of conjugate was also determined using standard ELISA checkerboard techniques.
The plate was incubated at 25° C. for 1 hour. Excess unbound conjugate was removed by washing 6 times over a 10-15 minute period with TBST.
125 μl of tetramethylbenzidine (TMB) substrate solution was added to each well of the plate that was then incubated for 20 minutes in the dark at room temperature. The reaction was terminated by addition of 100 ul 0.2 M H2SO4 to each well. The absorbance was then measured at 450 nm using a microtiter plate reader.

[3] = standard concentration 10 ng/ml
[4] = standard concentration 50 ng/ml
[5] = standard concentration 100 ng/ml
[6] = standard concentration 250 ng/ml
[7] = standard concentration 500 ng/ml
[8] = standard concentration 1000 ng/ml
[9] = standard concentration 0.5 ng/ml

SMILES	% CR (percentage cross-reactivity based on specificity to leucomalachite green) [1]	IC50 (standard concentration which produces 50% B/B0) [1]	% B/B0 ([1]; standard concentration 5 ng/ml)	A450 ([1]; standard concentration 5 ng/ml)	% B/B0 [1, 3]	A450 [1, 3]	% B/B0 [1, 4]	A450 [1, 4]	% B/B0 [1, 5]	A450 [1, 5]	% B/B0 [1, 6]	A450 [1, 6]	% B/B0 [1, 7]	A450 [1, 7]	% B/B0 [1, 8]	A450 [1, 8]	% CR (percentage cross-reactivity based on specificity to leucomalachite green) [2]	IC50 (standard concentration which produces 50% B/B0) [2]	% B/B0 [2, 9]	A450 [2, 9]	also measured
CN(C)c1ccc(C(c2ccccc2)c2ccc(N(C)C)cc2)cc1 [Leucomalachite Green, leucomalachite green]	100%	0.02733 mg/L	76.0%	1.378	67.5%	1.225	42.0%	0.762	30.2%	0.547	20.2%	0.366	13.6%	0.247	9.8%	0.178	100%	0.00374 mg/L	90%	1.550	cross-reactivity (Bioo Kit antibodies): 1%; % B/B0 ([2]; standard concentration 1 ng/ml): 77%; A450 ([2]; standard concentration 1 ng/ml): 1.323; % B/B0 ([2]; standard concentration 5 ng/ml): 45%; A450 ([2]; standard concentration 5 ng/ml): 0.772; % B/B0 [2, 3]: 31%; A450 [2, 3]: 0.538; % B/B0 [2, 4]: 11%; A450 [2, 4]: 0.184
CN(C)c1ccc(C(=C2C=CC(=[N+](C)C)C=C2)c2ccccc2)cc1 [Malachite Green, malachite green]	26.43%	0.10339 mg/L	85.2%	1.440	82.3%	1.392	63.6%	1.075	51.4%	0.869	39.3%	0.664	30.8%	0.520	24.6%	0.416	26.8%	0.013962 mg/L	95%	1.611	% B/B0 ([2]; standard concentration 1 ng/ml): 89%; A450 ([2]; standard concentration 1 ng/ml): 1.504; % B/B0 ([2]; standard concentration 5 ng/ml): 67%; A450 ([2]; standard concentration 5 ng/ml): 1.137; % B/B0 [2, 3]: 57%; A450 [2, 3]: 0.967; % B/B0 [2, 4]: 29%; A450 [2, 4]: 0.497; % B/B0 [2, 5]: 20%; A450 [2, 5]: 0.342; % B/B0 [2, 6]: 13%; A450 [2, 6]: 0.227; % B/B0 [2, 7]: 11%; A450 [2, 7]: 0.184; % B/B0 [2, 8]: 7%; A450 [2, 8]: 0.113
